Results from patent EP0874850B1, “NOVEL TRICYCLIC COMPOUNDS FOR THE INHIBITION OF THE ICE/CED-3 PROTEASE FAMILY OF ENZYMES” (Idun Pharmaceuticals, Inc., priority 1996, dated 1998).
Residues, ends and D or L forms follow the SMILES beside them. *: point of attachment. Cbz = O=C(OCc1ccccc1)*; CH2F = FC*

Key:
Assay type in all cases: biochemical
[1] = target: MCH-5; test: Determination of dissociation constant Ki and irreversible rate constant k3 for irreversible inhibitors (Mch5)
From the text: (§1) For the irreversible inhibition of a ICE/ced-3 Family Protease enzyme with a competitive irreversible inhibitor; using the model represented by the following formulas: [drawing 15] [drawing 16] The product formation at time t may be expressed as: [formula] where E, I, EI and E-I denote the active enzyme, inhibitor, non-covalent enzyme-inhibitor complex and covalent enzyme-inhibitor adduct, respectively. The Ki value is the overall dissociation constant of the reversible binding steps, and k3 is the irreversible rate constant. The [S] and Ks values are the substate concentration and dissociation constant of the substrate bound to the enzyme, respectively. [E]^T is the total enzyme concentration.
(§2) The above equations were used to determine the Ki and k3 values of a given inhibitor bound to a ICE/ced-3 family protease. Thus, a continuous assay was run for sixty minutes at various concentrations of the inhibitor and the substrate. The assay was formulated essentially the same as described above for generating the data in Table 1, except that the reaction was initiated by adding the enzyme to the substrate-inhibitor mixture. The Ki and k3 values were obtained by simulating the product AMC formation as a function of time according to Equation I. The results of this second assay are set forth below in Table 2. […]

[2] = target: mICE; test: Determination of dissociation constant Ki and irreversible rate constant k3 for irreversible inhibitors (ICE)
From the text: as §1, §2

[3] = target: CPP32; test: Determination of dissociation constant Ki and irreversible rate constant k3 for irreversible inhibitors (CPP32)
From the text: as §1, §2

[4] = target: MCH-2; test: Determination of dissociation constant Ki and irreversible rate constant k3 for irreversible inhibitors (Mch2)
From the text: as §1, §2

[5] = target: MCH-2; test: Fluorescence enzyme assay, determination of IC50 values (Mch2); details: 30 minutes preincubation at room temperature; substrate Acetyl-Asp-Glu-Val-Asp-amino-4-methylcoumarin
Description: (§3) The substrate is Acetyl-Tyr-Val-Ala-Asp-amino-4-methylcoumarin (AMC) for the ICE assay and Acetyl-Asp-Glu-Val-Asp-amino-4-methylcoumarin for the CPP32, Mch2, Mch3 and Mch5 assays. Enzyme reactions were run in ICE buffer (25 mM HEPES, 1 mM EDTA, 0.1% CHAPS, 10% sucrose, pH 7.5) containing 2 mM DTT at room temperature in duplicate.
(§4) The enzyme and the compound of Formula 1 to be assayed were allowed to preincubate in the microtitre plate wells for 30 minutes at room temperature prior to the addition of substrate to initiate the reaction. Fluorescent AMC product formation was monitored for one hour at room temperature by measuring the fluorescence emission at 460 nm using an excitation wavelength of 360 nm. […]
(§5) The reference compound for this assay was Cbz-ValAlaAsp-H and the values are denoted in Table 1 as "Reference".

[6] = target: CPP32; test: Fluorescence enzyme assay, determination of IC50 values (CPP32); details: recombinant enzyme; 30 minutes preincubation at room temperature; substrate Acetyl-Asp-Glu-Val-Asp-amino-4-methylcoumarin
Description: as §3, §4, §5

[7] = target: mICE; test: Fluorescence enzyme assay, determination of IC50 values (ICE); details: recombinant enzyme; 30 minutes preincubation at room temperature; substrate Acetyl-Tyr-Val-Ala-Asp-amino-4-methylcoumarin
Description: as §3, §4, §5

[8] = target: MCH-5; test: Fluorescence enzyme assay, determination of IC50 values (Mch5); details: 30 minutes preincubation at room temperature; substrate Acetyl-Asp-Glu-Val-Asp-amino-4-methylcoumarin
Description: as §3, §4, §5

[9] = target: MCH-3; test: Fluorescence enzyme assay, determination of IC50 values (Mch3); details: 30 minutes preincubation at room temperature; substrate Acetyl-Asp-Glu-Val-Asp-amino-4-methylcoumarin
Description: as §3, §4, §5

[10] = continuous assay for sixty minutes, reaction initiated by adding the enzyme

k3/Ki ([1]; Reference)	Ki [1, 10] [nM]	k3/Ki ([2]; Reference)	Ki [2, 10] [nM]	k3/Ki ([3]; Reference)	Ki [3, 10] [nM]	k3/Ki ([4]; Reference)	Ki [4, 10] [nM]	IC50 [5] [nM]	IC50 [6] [nM]	IC50 [7] [nM]	IC50 [8] [nM]	IC50 [9] [nM]	Compound
83,300 M^-1s^-1	18	214,000 M^-1s^-1	15	12,200 M^-1s^-1	820	2,950 M^-1s^-1	594	–	–	–	–	–	Cbz-Val-Ala-Asp-CH2F [Reference]
–	–	–	–	–	–	–	–	> 10000	47000	64	2960	> 10000	CC(C)[C@H](NC(=O)OCc1ccccc1)C(=O)N[C@@H](C)C(=O)N[C@H](C=O)CC(=O)O [Ref., Cbz-ValAlaAsp-H] (Cbz-Val-Ala-Asp-aldehyde)
